Test results reported in ChEMBL document CHEMBL3046044, “Evaluation of mefenamic acid mutual prodrugs” (Med Chem Res, 2013).

Assays:
[1] = tested on: Rattus norvegicus; experiment: Inhibition of superoxide dismutase level in Rattus norvegicus (rat) stomach at 1240 mg/kg, po after 12 hr (reference value: 37.096 +/- 7.335%); assay type: functional
[2] = tested on: Rattus norvegicus; experiment: Effect on protein level in Rattus norvegicus (rat) stomach at 1240 mg/kg, po after 12 hr by Bradford method (reference value: 42.5 +/- 5.773 ug/ml); assay type: functional
[3] = tested on: Rattus norvegicus; experiment: Antioxidant activity in Rattus norvegicus (rat) stomach assessed as effect on catalase level measured per mg of protein at 1240 mg/kg, po after 12 hr by spectrophotometric analysis (reference value: 26.055 +/- 4.669 U); assay type: functional
[4] = tested on: Rattus norvegicus; experiment: Antioxidant activity in Rattus norvegicus (rat) stomach assessed as effect on GSH level measured per 100 g of protein at 1240 mg/kg, po after 12 hr by Ellman's method (reference value: 350.735 +/- 42.887 uM); assay type: functional
[5] = tested on: Rattus norvegicus; experiment: Antioxidant activity in Rattus norvegicus (rat) stomach assessed as reduction of lipid peroxidation measured MDA level per mg of protein at 1260 mg/kg, po after 12 hr by TBARS assay (reference value: 4.388 +/- 0.404 nM); assay type: functional
[6] = tested on: Rattus norvegicus; experiment: Increase in hexosamine level in Rattus norvegicus (rat) stomach at 1240 mg/kg, po after 12 hr (reference value: 122.323 +/- 4.639 ug/ml); assay type: functional
[7] = tested on: Rattus norvegicus; experiment: Reduction of gastric wall mucus level in Rattus norvegicus (rat) stomach measured per mg of protein at 1240 mg/kg, po after 12 hr by alcian blue staining (reference value: 285.680 +/- 3.348 ug); assay type: functional
[8] = Half life in Homo sapiens (human) 80% plasma at 10 mg at pH 7.4; assay type: ADME, cell-free; conditions: 80% human plasma
[9] = Half life in isotonic phosphate buffer at 10 mg at pH 7.4; assay type: physicochemical
[10] = Half life in hydrochloric acid buffer at 10 mg at pH 1.2; assay type: physicochemical
[11] = Solubility of the compound in benzene at 10 mg; assay type: physicochemical
[12] = n-Octanol-phosphate buffer partition coefficient, log P of the compound at pH 7.4 by HPLC method; assay type: physicochemical
[13] = Solubility of the compound in dichloromethane at 10 mg; assay type: physicochemical
[14] = Solubility of the compound in ethanol at 10 mg; assay type: physicochemical
[15] = Solubility of the compound in chloroform at 10 mg; assay type: physicochemical
[16] = Solubility of the compound in methanol at 10 mg; assay type: physicochemical
[17] = Solubility of the compound in 0.1 N hydrochloric acid at 10 mg; assay type: physicochemical
[18] = Solubility of the compound in 0.1 N sodium hydroxide at 10 mg; assay type: physicochemical
[19] = tested on: Rattus norvegicus; experiment: Anti-inflammatory activity in Rattus norvegicus Wistar albino (rat) assessed as inhibition of carrageenan-induced paw edema at 124 mg/kg, po measured at 24 hr relative to control; assay type: functional
[20] = tested on: Rattus norvegicus; experiment: Anti-inflammatory activity in Rattus norvegicus Wistar albino (rat) assessed as inhibition of carrageenan-induced paw edema at 124 mg/kg, po measured at 6 hr relative to control; assay type: functional
[21] = tested on: Rattus norvegicus; experiment: Anti-inflammatory activity in Rattus norvegicus Wistar albino (rat) assessed as inhibition of carrageenan-induced paw edema at 124 mg/kg, po measured at 4 hr relative to control; assay type: functional
[22] = tested on: Rattus norvegicus; experiment: Anti-inflammatory activity in Rattus norvegicus Wistar albino (rat) assessed as inhibition of carrageenan-induced paw edema at 124 mg/kg, po measured at 3 hr relative to control; assay type: functional
[23] = tested on: Rattus norvegicus; experiment: Ulcerogenicity in Rattus norvegicus (rat) stomach assessed as ulcer index at 1240 mg/kg, po after 12 hr (reference value: 3.413 +/- 2.160 no unit); assay type: toxicity, organism-based; parameters: dose 1240 mg/kg, route oral; conditions: in vivo
[24] = tested on: Mus musculus; experiment: Analgesic activity in po dosed Mus musculus Swiss albino (mouse) assessed as inhibition of acetic acid-induced writhing administered 1 hr prior to acetic acid challenge measured for 20 min relative to control; assay type: functional
[25] = tested on: Rattus norvegicus; experiment: Anti-inflammatory activity in Rattus norvegicus Wistar albino (rat) assessed as inhibition of carrageenan-induced paw edema at 80 mg/kg, po measured at 4 hr relative to control; assay type: functional
[26] = tested on: Rattus norvegicus; experiment: Anti-inflammatory activity in Rattus norvegicus Wistar albino (rat) assessed as inhibition of carrageenan-induced paw edema at 80 mg/kg, po measured at 3 hr relative to control; assay type: functional
[27] = tested on: Rattus norvegicus; experiment: Effect on protein level in Rattus norvegicus (rat) stomach at 800 mg/kg, po after 12 hr by Bradford method (reference value: 42.5 +/- 5.773 ug/ml); assay type: functional
[28] = tested on: Rattus norvegicus; experiment: Inhibition of superoxide dismutase level in Rattus norvegicus (rat) stomach at 800 mg/kg, po after 12 hr (reference value: 37.096 +/- 7.335%); assay type: functional
[29] = tested on: Rattus norvegicus; experiment: Antioxidant activity in Rattus norvegicus (rat) stomach assessed as effect on catalase level measured per mg of protein at 800 mg/kg, po after 12 hr by spectrophotometric analysis (reference value: 26.055 +/- 4.669 U); assay type: functional
[30] = tested on: Rattus norvegicus; experiment: Antioxidant activity in Rattus norvegicus (rat) stomach assessed as effect on GSH level measured per 100 g of protein at 800 mg/kg, po after 12 hr by Ellman's method (reference value: 350.735 +/- 42.887 uM); assay type: functional
[31] = tested on: Rattus norvegicus; experiment: Antioxidant activity in Rattus norvegicus (rat) stomach assessed as reduction of lipid peroxidation measured MDA level per mg of protein at 1240 mg/kg, po after 12 hr by TBARS assay (reference value: 4.388 +/- 0.404 nM); assay type: functional
[32] = tested on: Rattus norvegicus; experiment: Increase in hexosamine level in Rattus norvegicus (rat) stomach at 800 mg/kg, po after 12 hr (reference value: 122.323 +/- 4.639 ug/ml); assay type: functional
[33] = tested on: Rattus norvegicus; experiment: Reduction of gastric wall mucus level in Rattus norvegicus (rat) stomach measured per mg of protein at 800 mg/kg, po after 12 hr by alcian blue staining (reference value: 285.680 +/- 3.348 ug); assay type: functional
[34] = tested on: Rattus norvegicus; experiment: Ulcerogenicity in Rattus norvegicus (rat) stomach assessed as ulcer index at 800 mg/kg, po after 12 hr (reference value: 3.413 +/- 2.160 no unit); assay type: toxicity, organism-based; parameters: dose 800 mg/kg, route oral; conditions: in vivo
[35] = tested on: Rattus norvegicus; experiment: Anti-inflammatory activity in Rattus norvegicus Wistar albino (rat) assessed as inhibition of carrageenan-induced paw edema at 80 mg/kg, po measured at 24 hr relative to control; assay type: functional
[36] = tested on: Rattus norvegicus; experiment: Anti-inflammatory activity in Rattus norvegicus Wistar albino (rat) assessed as inhibition of carrageenan-induced paw edema at 80 mg/kg, po measured at 6 hr relative to control; assay type: functional
[37] = tested on: Rattus norvegicus; experiment: Inhibition of superoxide dismutase level in Rattus norvegicus (rat) stomach at 1260 mg/kg, po after 12 hr (reference value: 37.096 +/- 7.335%); assay type: functional
[38] = tested on: Rattus norvegicus; experiment: Effect on protein level in Rattus norvegicus (rat) stomach at 1260 mg/kg, po after 12 hr by Bradford method (reference value: 42.5 +/- 5.773 ug/ml); assay type: functional
[39] = tested on: Rattus norvegicus; experiment: Antioxidant activity in Rattus norvegicus (rat) stomach assessed as effect on catalase level measured per mg of protein at 1260 mg/kg, po after 12 hr by spectrophotometric analysis (reference value: 26.055 +/- 4.669 U); assay type: functional
[40] = tested on: Rattus norvegicus; experiment: Antioxidant activity in Rattus norvegicus (rat) stomach assessed as effect on GSH level measured per 100 g of protein at 1260 mg/kg, po after 12 hr by Ellman's method (reference value: 350.735 +/- 42.887 uM); assay type: functional
[41] = tested on: Rattus norvegicus; experiment: Antioxidant activity in Rattus norvegicus (rat) stomach assessed as reduction of lipid peroxidation measured MDA level per mg of protein at 800 mg/kg, po after 12 hr by TBARS assay (reference value: 4.388 +/- 0.404 nM); assay type: functional
[42] = tested on: Rattus norvegicus; experiment: Increase in hexosamine level in Rattus norvegicus (rat) stomach at 1260 mg/kg, po after 12 hr (reference value: 122.323 +/- 4.639 ug/ml); assay type: functional
[43] = tested on: Rattus norvegicus; experiment: Reduction of gastric wall mucus level in Rattus norvegicus (rat) stomach measured per mg of protein at 1260 mg/kg, po after 12 hr by alcian blue staining (reference value: 285.680 +/- 3.348 ug); assay type: functional
[44] = tested on: Rattus norvegicus; experiment: Anti-inflammatory activity in Rattus norvegicus Wistar albino (rat) assessed as inhibition of carrageenan-induced paw edema at 126 mg/kg, po measured at 24 hr relative to control; assay type: functional
[45] = tested on: Rattus norvegicus; experiment: Anti-inflammatory activity in Rattus norvegicus Wistar albino (rat) assessed as inhibition of carrageenan-induced paw edema at 126 mg/kg, po measured at 6 hr relative to control; assay type: functional
[46] = tested on: Rattus norvegicus; experiment: Anti-inflammatory activity in Rattus norvegicus Wistar albino (rat) assessed as inhibition of carrageenan-induced paw edema at 126 mg/kg, po measured at 4 hr relative to control; assay type: functional
[47] = tested on: Rattus norvegicus; experiment: Anti-inflammatory activity in Rattus norvegicus Wistar albino (rat) assessed as inhibition of carrageenan-induced paw edema at 126 mg/kg, po measured at 3 hr relative to control; assay type: functional
[48] = tested on: Rattus norvegicus; experiment: Ulcerogenicity in Rattus norvegicus (rat) stomach assessed as ulcer index at 1260 mg/kg, po after 12 hr (reference value: 3.413 +/- 2.160 no unit); assay type: toxicity, organism-based; parameters: dose 1260 mg/kg, route oral; conditions: in vivo

`Cc1ccc(C(C)C)c(OC(=O)c2ccccc2Nc2cccc(C)c2C)c1` gave an inhibition in vivo at 1240 mg/kg [1] of 33.3%, an Activity [2] of 42.917 µg/mL and an Activity [3] of 23.089 U. The Activity [4] was 286.765 µM, the Activity [5] was 13.972 nM and the Activity [6] was 151.249 µg/mL. For the same compound, the Activity [7] was 190.256 µg, the half-life [8] was 1.14 h and the half-life [9] was 7.11 h. The half-life [10] was 23.1 h, the solubility [11] was “soluble” and the logD [12] was 5.45. The solubility [13] was “soluble”, the solubility [14] was “soluble” and the solubility [15] was “soluble”. For the same compound, the solubility [16] was “soluble”, the solubility [17] was “Insoluble” and the solubility [18] was “soluble”. It also gave an inhibition in vivo at 124 mg/kg [19] of 62.4%, an inhibition in vivo at 124 mg/kg [20] of 51% and an inhibition in vivo at 124 mg/kg [21] of 41.7%. For the same compound, the inhibition in vivo at 124 mg/kg [22] was 37.8%, the UI [23] was 6.833 and the “inhibition (INH)” value [24] was 52.722%.

Work on `Cc1cccc(Nc2ccccc2C(=O)O)c1C` [MEFENAMIC ACID] yielded an inhibition in vivo at 80 mg/kg [25] of 50.6%, an inhibition in vivo at 80 mg/kg [26] of 48.8% and an Activity [27] of 12.083 µg/mL. It also gave an inhibition in vivo at 800 mg/kg [28] of 24.2%, an Activity [29] of 4.587 U and an Activity [30] of 413.603 µM. It also gave an Activity [31] of 26.25 nM, an Activity [32] of 139.224 µg/mL and an Activity [33] of 170.026 µg. The solubility [11] was “soluble”, the solubility [13] was “soluble” and the solubility [14] was “soluble”. For the same compound, the solubility [15] was “soluble”, the solubility [16] was “soluble” and the solubility [17] was “Insoluble”. For the same compound, the solubility [18] was “soluble”, the UI [34] was 10.867 and the “inhibition (INH)” value [24] was 63.321%. It also gave an inhibition in vivo at 80 mg/kg [35] of 69.1% and an inhibition in vivo at 80 mg/kg [36] of 64.1%.

`Cc1cccc(Nc2ccccc2C(=O)OC2CC(C)CCC2C(C)C)c1C` (stereo not drawn) [Mefenamic acid-menthol] gave an inhibition in vivo at 1260 mg/kg [37] of 29.2%, an Activity [38] of 32.083 µg/mL and an Activity [39] of 23.807 U. It also gave an Activity [40] of 261.03 µM, an Activity [41] of 16.056 nM and an Activity [42] of 144.445 µg/mL. It also gave an Activity [43] of 227.7692 µg, a half-life [8] of 1.43 h and a half-life [9] of 8.87 h. The half-life [10] was 20.8 h, the solubility [11] was “soluble” and the logD [12] was 4.98. For the same compound, the solubility [13] was “soluble”, the solubility [14] was “soluble” and the solubility [15] was “soluble”. The solubility [16] was “soluble”, the solubility [17] was “Insoluble” and the solubility [18] was “soluble”. The inhibition in vivo at 126 mg/kg [44] was 67.1%, the inhibition in vivo at 126 mg/kg [45] was 51.6% and the inhibition in vivo at 126 mg/kg [46] was 44.1%. For the same compound, the inhibition in vivo at 126 mg/kg [47] was 41.7%, the UI [48] was 5.117 and the “inhibition (INH)” value [24] was 55.184%.
